Patent US20260285850A1, “SUBSTITUTED OXAZOLIDINONES AND IMIDAZOLINONES AS HERBICIDES” (FMC CORPORATION, priority 2023, published 2026)

Experiments:
Format in all cases: in vivo
soybean (Glycine max) [1] = experiment: Test A postemergence application, visual injury rating 0-100; conditions: Postemergence
In short: (§1)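 Scale 0–100 (no effect to complete control), visual, versus untreated controls, read 10 days after application. Application: preemergence directed spray onto seeded loam–sand soil, or postemergence to young plants; formulation in non-phytotoxic solvent with surfactant.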

[2] = tested on: palmer (palmer amaranth, palmer pigweed, Amaranthus palmeri); experiment: as above; conditions: Postemergence; for Pigweed, Palmer plant response rating (0 to 100 scale): 8 g ai/ha, 10 days, 0 is no effect, 100 is complete control; for Amaranth, Palmer / Pigweed, Palmer plant response rating (0 to 100 scale): 31 g ai/ha, greenhouse 10 days, 0 no effect, 100 complete control
In short: as §1

[3] = tested on: horseweed (Erigeron canadensis); experiment: as above; conditions: Postemergence
In short: as §1

[4] = tested on: blackgrass (Alopecurus myosuroides); experiment: as above; conditions: Postemergence
In short: as §1

corn (Zea mays) [5] = experiment: as above; conditions: Postemergence
In short: as §1

kochia (Bassia scoparia) [6] = experiment: as above; conditions: Postemergence
In short: as §1

[7] = tested on: wheat (Triticum aestivum); experiment: as above; conditions: Postemergence
In short: as §1

[8] = tested on: green foxtail (Setaria viridis); experiment: as above; conditions: Postemergence
In short: as §1

[9] = tested on: barnyardgrass (Echinochloa crus-galli); experiment: as above; conditions: Postemergence
In short: as §1

[10] = tested on: ragweed (common ragweed, Ambrosia artemisiifolia); experiment: as above; conditions: Postemergence
In short: as §1

[11] = tested on: oat, wild (wild oat, Avena fatua); experiment: as above; conditions: Postemergence
In short: as §1

[12] = tested on: ryegrass, Italian (italian ryegrass, Lolium multiflorum); experiment: as above; conditions: Postemergence
In short: as §1

[13] = tested on: galium (catchweed bedstraw, Galium aparine); experiment: as above; conditions: Postemergence
In short: as §1

soybean (Glycine max) [14] = experiment: Test A preemergence soil spray, visual injury rating 0-100; conditions: 0 to 100 scale, 10 days
In short: as §1

[15] = tested on: palmer (palmer amaranth, palmer pigweed, Amaranthus palmeri); experiment: as above; conditions: 0 to 100 scale, 10 days; for Pigweed, Palmer plant response rating: 8 g ai/ha; for Amaranth, Palmer (Pigweed, Palmer) plant response rating: 31 g ai/ha
In short: as §1

[16] = tested on: blackgrass (Alopecurus myosuroides); experiment: as above; conditions: 0 to 100 scale, 10 days
In short: as §1

corn (Zea mays) [17] = experiment: as above; conditions: 0 to 100 scale, 10 days
In short: as §1

kochia (Bassia scoparia) [18] = experiment: as above; conditions: 0 to 100 scale, 10 days
In short: as §1

[19] = tested on: wheat (Triticum aestivum); experiment: as above; conditions: 0 to 100 scale, 10 days
In short: as §1

[20] = tested on: green foxtail (Setaria viridis); experiment: as above; conditions: 0 to 100 scale, 10 days
In short: as §1

[21] = tested on: barnyardgrass (Echinochloa crus-galli); experiment: as above; conditions: 0 to 100 scale, 10 days
In short: as §1

[22] = tested on: ragweed (common ragweed, Ambrosia artemisiifolia); experiment: as above; conditions: 0 to 100 scale, 10 days
In short: as §1

[23] = tested on: oat, wild (wild oat, Avena fatua); experiment: as above; conditions: 0 to 100 scale, 10 days
In short: as §1

[24] = tested on: ryegrass, Italian (italian ryegrass, Lolium multiflorum); experiment: as above; conditions: 0 to 100 scale, 10 days
In short: as §1

[25] = tested on: barnyardgrass (Echinochloa crusgalli); experiment: Test B flooded paddy test, visual plant response rating 0-100; conditions: 250 g ai/ha, Flood, applied to paddy water, evaluated after 13 days
In short: (§2)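 Plants were grown to the 2-leaf stage, then pots were flooded to 3 cm above the soil and compound was applied directly to the paddy water, with that depth kept throughout.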

rice (Oryza sativa) = experiment: as above; conditions: 250 g ai/ha, Flood, applied to paddy water, evaluated after 13 days
In short: as §2

[26] = tested on: sedge, umbrella (small-flower umbrella sedge, Cyperus difformis); experiment: as above; conditions: 250 g ai/ha, Flood, applied to paddy water, evaluated after 13 days
In short: as §2

[27] = tested on: ducksalad (Heteranthera limosa); experiment: as above; conditions: 250 g ai/ha, Flood, applied to paddy water, evaluated after 13 days
In short: as §2

[28] = 8 g ai/ha, 10 days, 0 is no effect, 100 is complete control
[29] = 31 g ai/ha, greenhouse 10 days, 0 no effect, 100 complete control

## CC1(C(=O)NC2C=CC(C(=O)NS(=O)(=O)C3CC3)C2)CN(c2cc(F)cc(F)c2)C(=O)O1 (centres unmarked) [Compound 87]
Soybean (Glycine max) [1]; [28]
  Soybean plant response rating (0 to 100 scale): 20
Soybean (Glycine max) [1]; [29]
  Soybean plant response rating (0 to 100 scale): 50
[2]
  Pigweed, Palmer plant response rating (0 to 100 scale): 30
  Amaranth, Palmer / Pigweed, Palmer plant response rating (0 to 100 scale): 70
[3]; [28]
  Horseweed plant response rating (0 to 100 scale): 20
[3]; [29]
  Horseweed plant response rating (0 to 100 scale): 30
[4]; [28]
  Blackgrass plant response rating (0 to 100 scale): 0
[4]; [29]
  Blackgrass plant response rating (0 to 100 scale): 30
Corn (Zea mays) [5]; [28]
  Corn plant response rating (0 to 100 scale): 0
Corn (Zea mays) [5]; [29]
  Corn plant response rating (0 to 100 scale): 80
Kochia (Bassia scoparia) [6]; [28]
  Kochia plant response rating (0 to 100 scale): 30
Kochia (Bassia scoparia) [6]; [29]
  Kochia plant response rating (0 to 100 scale): 80
[7]; [28]
  Wheat plant response rating (0 to 100 scale): 0
[7]; [29]
  Wheat plant response rating (0 to 100 scale): 100
[8]; [28]
  Foxtail, Green plant response rating (0 to 100 scale): 0
[8]; [29]
  Foxtail, Green plant response rating (0 to 100 scale): 40
[9]; [28]
  Barnyardgrass plant response rating (0 to 100 scale): 50
[9]; [29]
  Barnyardgrass plant response rating (0 to 100 scale): 100
[10]; [28]
  Ragweed plant response rating (0 to 100 scale): 10
[10]; [29]
  Ragweed plant response rating (0 to 100 scale): 50
[11]; [28]
  Oat, Wild plant response rating (0 to 100 scale): 20
[11]; [29]
  Oat, Wild plant response rating (0 to 100 scale): 90
[12]; [28]
  Ryegrass, Italian plant response rating (0 to 100 scale): 20
[12]; [29]
  Ryegrass, Italian plant response rating (0 to 100 scale): 50
[13]; [28]
  Galium plant response rating (0 to 100 scale): 50
[13]; [29]
  Galium plant response rating (0 to 100 scale): 70
Soybean (Glycine max) [14]; 8 g ai/ha
  Soybean plant response rating: 0
Soybean (Glycine max) [14]; 31 g ai/ha
  Soybean plant response rating: 0
[15]
  Pigweed, Palmer plant response rating: 10
  Amaranth, Palmer (Pigweed, Palmer) plant response rating: 90
[16]; 8 g ai/ha
  Blackgrass plant response rating: 10
[16]; 31 g ai/ha
  Blackgrass plant response rating: 20
Corn (Zea mays) [17]; 8 g ai/ha
  Corn plant response rating: 0
Corn (Zea mays) [17]; 31 g ai/ha
  Corn plant response rating: 0
Kochia (Bassia scoparia) [18]; 8 g ai/ha
  Kochia plant response rating: 0
Kochia (Bassia scoparia) [18]; 31 g ai/ha
  Kochia plant response rating: 10
[19]; 8 g ai/ha
  Wheat plant response rating: 0
[19]; 31 g ai/ha
  Wheat plant response rating: 20
[20]; 8 g ai/ha
  Foxtail, Green plant response rating: 30
[20]; 31 g ai/ha
  Foxtail, Green plant response rating: 20
[21]; 8 g ai/ha
  Barnyardgrass plant response rating: 0
[21]; 31 g ai/ha
  Barnyardgrass plant response rating: 90
[22]; 8 g ai/ha
  Ragweed plant response rating: 10
[22]; 31 g ai/ha
  Ragweed plant response rating: 10
[23]; 8 g ai/ha
  Oat, Wild plant response rating: 0
[23]; 31 g ai/ha
  Oat, Wild plant response rating: 0
[24]; 8 g ai/ha
  Ryegrass, Italian plant response rating: 0
[24]; 31 g ai/ha
  Ryegrass, Italian plant response rating: 30
[25]
  Plant response rating, Barnyardgrass (0 to 100 scale, 0 is no effect and 100 is complete control): 0
Rice (Oryza sativa)
  Plant response rating, Rice (0 to 100 scale, 0 is no effect and 100 is complete control): 0
[26]
  Plant response rating, Sedge, Umbrella (0 to 100 scale, 0 is no effect and 100 is complete control): 0
[27]
  Plant response rating, Ducksalad (0 to 100 scale, 0 is no effect and 100 is complete control): 0

## CC1(C(=O)NC2C=CC(C(=O)NS(=O)(=O)c3ccccc3)C2)CN(c2cc(F)cc(F)c2)C(=O)O1 (centres unmarked) [Compound 88]
Soybean (Glycine max) [1]; [28]
  Soybean plant response rating (0 to 100 scale): 0
Soybean (Glycine max) [1]; [29]
  Soybean plant response rating (0 to 100 scale): 50
[2]
  Pigweed, Palmer plant response rating (0 to 100 scale): 40
  Amaranth, Palmer / Pigweed, Palmer plant response rating (0 to 100 scale): 90
[3]; [28]
  Horseweed plant response rating (0 to 100 scale): 0
[3]; [29]
  Horseweed plant response rating (0 to 100 scale): 50
[4]; [28]
  Blackgrass plant response rating (0 to 100 scale): 0
[4]; [29]
  Blackgrass plant response rating (0 to 100 scale): 50
Corn (Zea mays) [5]; [28]
  Corn plant response rating (0 to 100 scale): 40
Corn (Zea mays) [5]; [29]
  Corn plant response rating (0 to 100 scale): 90
Kochia (Bassia scoparia) [6]; [28]
  Kochia plant response rating (0 to 100 scale): 30
Kochia (Bassia scoparia) [6]; [29]
  Kochia plant response rating (0 to 100 scale): 80
[7]; [28]
  Wheat plant response rating (0 to 100 scale): 20
[7]; [29]
  Wheat plant response rating (0 to 100 scale): 40
[8]; [28]
  Foxtail, Green plant response rating (0 to 100 scale): 0
[8]; [29]
  Foxtail, Green plant response rating (0 to 100 scale): 50
[9]; [28]
  Barnyardgrass plant response rating (0 to 100 scale): 10
[9]; [29]
  Barnyardgrass plant response rating (0 to 100 scale): 100
[10]; [28]
  Ragweed plant response rating (0 to 100 scale): 50
[10]; [29]
  Ragweed plant response rating (0 to 100 scale): 60
[11]; [28]
  Oat, Wild plant response rating (0 to 100 scale): 20
[11]; [29]
  Oat, Wild plant response rating (0 to 100 scale): 90
[12]; [28]
  Ryegrass, Italian plant response rating (0 to 100 scale): 0
[12]; [29]
  Ryegrass, Italian plant response rating (0 to 100 scale): 50
[13]; [28]
  Galium plant response rating (0 to 100 scale): 30
[13]; [29]
  Galium plant response rating (0 to 100 scale): 70
Soybean (Glycine max) [14]; 8 g ai/ha
  Soybean plant response rating: 0
Soybean (Glycine max) [14]; 31 g ai/ha
  Soybean plant response rating: 0
[15]
  Pigweed, Palmer plant response rating: 50
  Amaranth, Palmer (Pigweed, Palmer) plant response rating: 80
[16]; 8 g ai/ha
  Blackgrass plant response rating: 0
[16]; 31 g ai/ha
  Blackgrass plant response rating: 30
Corn (Zea mays) [17]; 8 g ai/ha
  Corn plant response rating: 0
Corn (Zea mays) [17]; 31 g ai/ha
  Corn plant response rating: 0
Kochia (Bassia scoparia) [18]; 8 g ai/ha
  Kochia plant response rating: 0
Kochia (Bassia scoparia) [18]; 31 g ai/ha
  Kochia plant response rating: 60
[19]; 8 g ai/ha
  Wheat plant response rating: 0
[19]; 31 g ai/ha
  Wheat plant response rating: 10
[20]; 8 g ai/ha
  Foxtail, Green plant response rating: 20
[20]; 31 g ai/ha
  Foxtail, Green plant response rating: 30
[21]; 8 g ai/ha
  Barnyardgrass plant response rating: 10
[21]; 31 g ai/ha
  Barnyardgrass plant response rating: 40
[22]; 8 g ai/ha
  Ragweed plant response rating: 0
[22]; 31 g ai/ha
  Ragweed plant response rating: 40
[23]; 8 g ai/ha
  Oat, Wild plant response rating: 0
[23]; 31 g ai/ha
  Oat, Wild plant response rating: 0
[24]; 8 g ai/ha
  Ryegrass, Italian plant response rating: 10
[24]; 31 g ai/ha
  Ryegrass, Italian plant response rating: 50
[25]
  Plant response rating, Barnyardgrass (0 to 100 scale, 0 is no effect and 100 is complete control): 15
Rice (Oryza sativa)
  Plant response rating, Rice (0 to 100 scale, 0 is no effect and 100 is complete control): 25
[26]
  Plant response rating, Sedge, Umbrella (0 to 100 scale, 0 is no effect and 100 is complete control): 80
[27]
  Plant response rating, Ducksalad (0 to 100 scale, 0 is no effect and 100 is complete control): 70
